Measured values published in patent US20140369934A1, “dsRNA/DNA Hybrid Genome Replication Intermediate Of Metakaryotic Stem Cells” (MASSACHUSETTS INSTITUTE OF TECHNOLOGY, priority 2011, published 2014).

System: dsRNA/DNA-specific antibodies
Experiment: Blocking test of dsRNA/DNA antibody immunofluorescence staining with poly(A)-poly(dT)
Assay type: binding
Settings: 10 micrograms/milliliter Poly(A)-Poly(dT) mixed with antibody (1/20 final), incubated 10-15 minutes at room temperature
Description: The specificity of staining by antibodies was checked for by the blocking test with poly(A)-poly(dT), which was performed as follows:
Equal volumes of Poly(A)-Poly(dT) (20 ug/ml) and antibody (1/10) were mixed to give final concentrations of 10 ug/ml A.dT and 1/20 of serum (antibody). For controls, PBS was used in place of Poly(A)-Poly(dT). Samples were incubated for 10-15 minutes at room temperature.
Samples were then tested at final concentrations of 10, 2.0, 0.5 and 0.08 micrograms/ml, in each case incubating equal volumes of polynucleotide and antibody that are twice the final concentration, as above.

Poly(A)-Poly(dT)
staining with dsRNA/DNA-specific antibodies after addition of blocker: completely blocked
